Columns and labels:
Assay in all cases: KINOMEscan
Format in all cases: binding
ABL1 (M351T)-P = target: T1, ABL1 (M351T)-P (Homo sapiens, UniProt P00519, M351T)
T1 construct: purchased Eurofins DiscoverX KINOMEscan
Outline: (§1)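 Dissociation constants derive from a 12-point, half-log compound titration (highest 33 μM). Each binding reaction ran 1 h at room temperature before qPCR quantification of kinase captured on an immobilized affinity ligand.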

AKT1 = target: T2, AKT1 (Homo sapiens, UniProt P31749)
T2 construct: purchased Eurofins DiscoverX KINOMEscan
Outline: (§2)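 Quantitative PCR measured kinase retained on an immobilized affinity ligand, i.e. kinase not bound by test compound, after 1 h binding at room temperature. Kd came from 12 half-log concentrations up to 33 μM.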

LTK = target: T3, LTK (Homo sapiens, UniProt P29376)
T3 construct: purchased Eurofins DiscoverX KINOMEscan
Outline: as §1

ERK1 = target: T4, ERK1 (Homo sapiens, UniProt P27361)
T4 construct: purchased Eurofins DiscoverX KINOMEscan
Outline: as §1

AAK1 = target: T5, AAK1 (Homo sapiens, UniProt Q2M2I8)
T5 construct: purchased Eurofins DiscoverX KINOMEscan
Outline: as §1

PAK6 = target: T6, PAK6 (Homo sapiens, UniProt Q9NQU5)
T6 construct: purchased Eurofins DiscoverX KINOMEscan
Outline: as §2

PRKCQ = target: T7, PRKCQ (Homo sapiens, UniProt Q04759)
T7 construct: purchased Eurofins DiscoverX KINOMEscan
Outline: as §1

CAMK2B = target: T8, CAMK2B (Homo sapiens, UniProt Q13554)
T8 construct: purchased Eurofins DiscoverX KINOMEscan
Outline: as §1

WEE1 = target: T9, WEE1 (Homo sapiens, UniProt P30291)
T9 construct: purchased Eurofins DiscoverX KINOMEscan
Outline: as §1

VRK2 = target: T10, VRK2 (Homo sapiens, UniProt Q86Y07)
T10 construct: purchased Eurofins DiscoverX KINOMEscan
Outline: as §1

KIT-autoinhibited = target: T11, KIT-autoinhibited (Homo sapiens, UniProt P10721)
T11 construct: purchased Eurofins DiscoverX KINOMEscan
Outline: as §2

PCTK1 = target: T12, PCTK1 (Homo sapiens, UniProt Q00536)
T12 construct: purchased Eurofins DiscoverX KINOMEscan
Outline: as §1

SRPK1 = target: T13, SRPK1 (Homo sapiens, UniProt Q96SB4)
T13 construct: purchased Eurofins DiscoverX KINOMEscan
Outline: as §2

ADCK4 = target: T14, ADCK4 (Homo sapiens, UniProt Q96D53)
T14 construct: purchased Eurofins DiscoverX KINOMEscan
Outline: as §1

ABL1 (F317L)-P = target: T15, ABL1 (F317L)-P (Homo sapiens, UniProt P00519, F317L)
T15 construct: purchased Eurofins DiscoverX KINOMEscan
Outline: as §1

PIK3CA (Q546K) = target: T16, PIK3CA (Q546K) (Homo sapiens, UniProt P42336, Q546K)
T16 construct: purchased Eurofins DiscoverX KINOMEscan
Outline: as §1

SNRK = target: T17, SNRK (Homo sapiens, UniProt Q9NRH2)
T17 construct: purchased Eurofins DiscoverX KINOMEscan
Outline: as §1

NEK7 = target: T18, NEK7 (Homo sapiens, UniProt Q8TDX7)
T18 construct: purchased Eurofins DiscoverX KINOMEscan
Outline: as §1

LYN = target: T19, LYN (Homo sapiens, UniProt P07948)
T19 construct: purchased Eurofins DiscoverX KINOMEscan
Outline: as §1

FGR = target: T20, FGR (Homo sapiens, UniProt P09769)
T20 construct: purchased Eurofins DiscoverX KINOMEscan
Outline: as §2

ZAK = target: T21, ZAK (Homo sapiens, UniProt Q9NYL2)
T21 construct: purchased Eurofins DiscoverX KINOMEscan
Outline: as §1

CAMK1B = target: T22, CAMK1B (Homo sapiens, UniProt Q6P2M8)
T22 construct: purchased Eurofins DiscoverX KINOMEscan
Outline: as §2

OSR1 = target: T23, OSR1 (Homo sapiens, UniProt O95747)
T23 construct: purchased Eurofins DiscoverX KINOMEscan
Outline: as §1

ACVR1 = target: T24, ACVR1 (Homo sapiens, UniProt Q04771)
T24 construct: purchased Eurofins DiscoverX KINOMEscan
Outline: as §1

PIM2 = target: T25, PIM2 (Homo sapiens, UniProt Q9P1W9)
T25 construct: purchased Eurofins DiscoverX KINOMEscan
Outline: as §1

CLK4 = target: T26, CLK4 (Homo sapiens, UniProt Q9HAZ1)
T26 construct: purchased Eurofins DiscoverX KINOMEscan
Outline: as §2

GRK1 = target: T27, GRK1 (Homo sapiens, UniProt Q15835)
T27 construct: purchased Eurofins DiscoverX KINOMEscan
Outline: as §1

MAP3K3 = target: T28, MAP3K3 (Homo sapiens, UniProt Q99759)
T28 construct: purchased Eurofins DiscoverX KINOMEscan
Outline: as §1

TNK2 = target: T29, TNK2 (Homo sapiens, UniProt Q07912)
T29 construct: purchased Eurofins DiscoverX KINOMEscan
Outline: as §1

CTK = target: T30, CTK (Homo sapiens, UniProt P42679)
T30 construct: purchased Eurofins DiscoverX KINOMEscan
Outline: as §1

EGFR (L861Q) = target: T31, EGFR (L861Q) (Homo sapiens, UniProt P00533, L861Q)
T31 construct: purchased Eurofins DiscoverX KINOMEscan
Outline: as §1

TAOK1 = target: T32, TAOK1 (Homo sapiens, UniProt Q7L7X3)
T32 construct: purchased Eurofins DiscoverX KINOMEscan
Outline: as §1

PCTK2 = target: T33, PCTK2 (Homo sapiens, UniProt Q00537)
T33 construct: purchased Eurofins DiscoverX KINOMEscan
Outline: as §1

STK36 = target: T34, STK36 (Homo sapiens, UniProt Q9NRP7)
T34 construct: purchased Eurofins DiscoverX KINOMEscan
Outline: as §2

[1] = target: T35, RSK3 (Kin. Dom.2-C-term.) (Homo sapiens, UniProt Q15349)
T35 construct: RSK3 (Kin. Dom.2-C-term.); purchased Eurofins DiscoverX KINOMEscan
Outline: as §1

PRKD3 = target: T36, PRKD3 (Homo sapiens, UniProt O94806)
T36 construct: purchased Eurofins DiscoverX KINOMEscan
Outline: as §1

STK16 = target: T37, STK16 (Homo sapiens, UniProt O75716)
T37 construct: purchased Eurofins DiscoverX KINOMEscan
Outline: as §1

IKK-β = target: T38, IKK-β (Homo sapiens, UniProt O14920)
T38 construct: purchased Eurofins DiscoverX KINOMEscan
Outline: as §2

CLK3 = target: T39, CLK3 (Homo sapiens, UniProt P49761)
T39 construct: purchased Eurofins DiscoverX KINOMEscan
Outline: as §1

T27 sequence (Q15835 whole entry): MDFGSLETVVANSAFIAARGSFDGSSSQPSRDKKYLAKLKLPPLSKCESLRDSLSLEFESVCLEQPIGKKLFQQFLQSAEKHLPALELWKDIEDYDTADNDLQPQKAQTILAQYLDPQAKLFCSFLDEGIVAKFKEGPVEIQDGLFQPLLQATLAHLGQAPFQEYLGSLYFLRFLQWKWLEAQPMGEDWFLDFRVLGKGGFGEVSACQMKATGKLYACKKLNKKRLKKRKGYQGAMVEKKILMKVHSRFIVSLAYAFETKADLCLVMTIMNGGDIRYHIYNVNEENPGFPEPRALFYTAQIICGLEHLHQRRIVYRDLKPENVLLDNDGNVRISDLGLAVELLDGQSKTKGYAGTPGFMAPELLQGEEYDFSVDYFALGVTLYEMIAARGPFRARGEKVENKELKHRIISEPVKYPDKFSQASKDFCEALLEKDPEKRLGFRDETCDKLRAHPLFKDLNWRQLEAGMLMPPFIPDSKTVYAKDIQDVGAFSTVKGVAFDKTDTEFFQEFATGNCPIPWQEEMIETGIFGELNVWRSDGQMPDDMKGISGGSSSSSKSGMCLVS
T26 sequence (Q9HAZ1 whole entry): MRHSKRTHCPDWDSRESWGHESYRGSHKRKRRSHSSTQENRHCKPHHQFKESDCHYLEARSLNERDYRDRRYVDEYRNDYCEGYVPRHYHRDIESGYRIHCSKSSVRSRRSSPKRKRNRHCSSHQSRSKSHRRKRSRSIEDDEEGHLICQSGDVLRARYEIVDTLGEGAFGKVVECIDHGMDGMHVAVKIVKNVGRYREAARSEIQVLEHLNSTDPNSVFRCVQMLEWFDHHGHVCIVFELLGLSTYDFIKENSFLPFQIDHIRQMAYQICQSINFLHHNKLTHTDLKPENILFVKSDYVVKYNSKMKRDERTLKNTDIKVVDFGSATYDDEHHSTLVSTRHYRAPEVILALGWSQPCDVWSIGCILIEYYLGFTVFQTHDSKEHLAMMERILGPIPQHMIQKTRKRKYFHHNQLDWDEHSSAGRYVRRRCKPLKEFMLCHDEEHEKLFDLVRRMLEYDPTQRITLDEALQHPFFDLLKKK
T9 sequence (P30291 whole entry): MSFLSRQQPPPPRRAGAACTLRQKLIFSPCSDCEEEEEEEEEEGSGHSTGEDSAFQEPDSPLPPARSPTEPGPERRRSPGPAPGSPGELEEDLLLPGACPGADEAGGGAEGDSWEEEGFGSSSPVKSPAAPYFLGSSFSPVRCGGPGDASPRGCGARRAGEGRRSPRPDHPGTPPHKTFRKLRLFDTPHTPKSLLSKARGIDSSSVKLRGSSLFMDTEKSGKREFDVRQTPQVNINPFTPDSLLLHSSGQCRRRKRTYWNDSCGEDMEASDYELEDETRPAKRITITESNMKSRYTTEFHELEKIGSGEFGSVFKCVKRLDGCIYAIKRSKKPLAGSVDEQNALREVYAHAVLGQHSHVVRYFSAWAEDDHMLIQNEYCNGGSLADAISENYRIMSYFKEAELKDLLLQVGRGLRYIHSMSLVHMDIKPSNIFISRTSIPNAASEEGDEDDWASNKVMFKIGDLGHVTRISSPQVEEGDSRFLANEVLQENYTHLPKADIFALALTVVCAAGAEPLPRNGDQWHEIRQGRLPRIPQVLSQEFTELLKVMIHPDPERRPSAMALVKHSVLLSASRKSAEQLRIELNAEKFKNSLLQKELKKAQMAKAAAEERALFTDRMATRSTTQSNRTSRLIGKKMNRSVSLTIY
T5 sequence (Q2M2I8 whole entry): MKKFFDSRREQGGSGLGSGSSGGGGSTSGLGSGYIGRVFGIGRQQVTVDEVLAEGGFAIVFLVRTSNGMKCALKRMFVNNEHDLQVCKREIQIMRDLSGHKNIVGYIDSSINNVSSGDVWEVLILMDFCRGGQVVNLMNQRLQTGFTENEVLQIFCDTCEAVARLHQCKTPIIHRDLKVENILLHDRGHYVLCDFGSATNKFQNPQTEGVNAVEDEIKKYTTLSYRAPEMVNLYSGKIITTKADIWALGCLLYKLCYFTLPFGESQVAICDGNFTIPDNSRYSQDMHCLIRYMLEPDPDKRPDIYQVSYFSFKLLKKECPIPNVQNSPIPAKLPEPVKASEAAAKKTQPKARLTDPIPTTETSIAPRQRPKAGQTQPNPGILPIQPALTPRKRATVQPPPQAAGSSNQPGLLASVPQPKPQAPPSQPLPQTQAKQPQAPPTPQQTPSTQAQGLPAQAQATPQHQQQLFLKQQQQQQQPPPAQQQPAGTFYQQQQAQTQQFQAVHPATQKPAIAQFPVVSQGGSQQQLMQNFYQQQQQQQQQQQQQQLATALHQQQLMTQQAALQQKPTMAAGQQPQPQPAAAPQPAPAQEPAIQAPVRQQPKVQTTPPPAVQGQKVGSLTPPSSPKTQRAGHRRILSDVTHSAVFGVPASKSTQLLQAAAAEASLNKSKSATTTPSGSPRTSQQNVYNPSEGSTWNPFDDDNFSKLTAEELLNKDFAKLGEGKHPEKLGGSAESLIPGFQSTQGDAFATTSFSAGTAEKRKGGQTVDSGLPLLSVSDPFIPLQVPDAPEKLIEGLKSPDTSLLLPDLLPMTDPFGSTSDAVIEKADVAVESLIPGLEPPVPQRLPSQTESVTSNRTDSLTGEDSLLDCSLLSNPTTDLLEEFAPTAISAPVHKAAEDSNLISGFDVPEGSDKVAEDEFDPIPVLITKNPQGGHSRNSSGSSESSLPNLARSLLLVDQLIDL
T4 sequence (P27361 whole entry): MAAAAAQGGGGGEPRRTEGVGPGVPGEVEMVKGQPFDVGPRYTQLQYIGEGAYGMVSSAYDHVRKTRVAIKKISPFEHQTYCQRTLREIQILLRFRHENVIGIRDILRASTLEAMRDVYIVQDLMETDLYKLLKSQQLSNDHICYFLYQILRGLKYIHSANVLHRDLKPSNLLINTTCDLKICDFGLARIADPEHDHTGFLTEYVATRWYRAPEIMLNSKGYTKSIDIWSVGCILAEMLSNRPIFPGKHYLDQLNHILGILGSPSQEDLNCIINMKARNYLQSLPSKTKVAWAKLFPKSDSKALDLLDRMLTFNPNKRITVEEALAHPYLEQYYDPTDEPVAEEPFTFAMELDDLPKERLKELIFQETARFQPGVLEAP
T39 sequence (P49761 whole entry): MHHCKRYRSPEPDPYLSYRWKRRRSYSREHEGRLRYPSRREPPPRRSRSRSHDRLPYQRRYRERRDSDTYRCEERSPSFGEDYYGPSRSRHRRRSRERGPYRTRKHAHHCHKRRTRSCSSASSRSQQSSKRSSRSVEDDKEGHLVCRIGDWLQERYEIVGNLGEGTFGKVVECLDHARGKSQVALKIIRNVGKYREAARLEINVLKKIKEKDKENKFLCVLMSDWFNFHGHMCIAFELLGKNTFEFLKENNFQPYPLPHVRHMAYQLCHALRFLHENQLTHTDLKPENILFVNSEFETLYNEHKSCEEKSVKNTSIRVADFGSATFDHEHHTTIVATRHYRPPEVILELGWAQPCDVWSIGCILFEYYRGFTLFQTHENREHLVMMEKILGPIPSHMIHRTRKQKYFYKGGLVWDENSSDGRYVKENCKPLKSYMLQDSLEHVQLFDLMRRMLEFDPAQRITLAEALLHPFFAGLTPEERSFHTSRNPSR
T33 sequence (Q00537 whole entry): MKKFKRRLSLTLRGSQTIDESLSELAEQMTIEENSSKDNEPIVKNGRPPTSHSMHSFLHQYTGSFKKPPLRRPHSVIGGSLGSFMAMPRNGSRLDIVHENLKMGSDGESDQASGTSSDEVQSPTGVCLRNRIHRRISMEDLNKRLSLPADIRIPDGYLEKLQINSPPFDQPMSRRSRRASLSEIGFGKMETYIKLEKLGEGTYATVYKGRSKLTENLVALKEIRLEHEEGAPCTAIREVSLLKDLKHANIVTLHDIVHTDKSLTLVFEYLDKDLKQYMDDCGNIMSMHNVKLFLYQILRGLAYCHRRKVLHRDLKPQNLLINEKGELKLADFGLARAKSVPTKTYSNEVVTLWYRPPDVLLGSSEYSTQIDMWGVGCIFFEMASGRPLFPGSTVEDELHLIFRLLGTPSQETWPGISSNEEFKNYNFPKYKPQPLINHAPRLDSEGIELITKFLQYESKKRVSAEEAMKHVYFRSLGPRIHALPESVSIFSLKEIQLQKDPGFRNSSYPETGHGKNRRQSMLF
T14 sequence (Q96D53 whole entry): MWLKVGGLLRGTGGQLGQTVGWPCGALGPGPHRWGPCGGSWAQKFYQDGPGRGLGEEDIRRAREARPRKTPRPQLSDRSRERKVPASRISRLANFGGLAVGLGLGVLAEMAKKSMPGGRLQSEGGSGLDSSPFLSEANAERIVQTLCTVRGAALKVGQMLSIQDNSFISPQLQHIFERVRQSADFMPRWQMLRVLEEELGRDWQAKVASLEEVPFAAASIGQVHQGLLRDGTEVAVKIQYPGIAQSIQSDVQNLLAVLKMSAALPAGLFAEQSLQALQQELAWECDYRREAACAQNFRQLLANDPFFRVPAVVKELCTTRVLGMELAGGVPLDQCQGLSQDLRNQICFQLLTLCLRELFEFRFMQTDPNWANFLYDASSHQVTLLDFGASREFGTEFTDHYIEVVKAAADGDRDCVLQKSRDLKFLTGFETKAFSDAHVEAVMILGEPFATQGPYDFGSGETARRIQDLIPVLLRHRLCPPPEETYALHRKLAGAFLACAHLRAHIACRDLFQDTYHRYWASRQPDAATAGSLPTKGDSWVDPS
T25 sequence (Q9P1W9 whole entry): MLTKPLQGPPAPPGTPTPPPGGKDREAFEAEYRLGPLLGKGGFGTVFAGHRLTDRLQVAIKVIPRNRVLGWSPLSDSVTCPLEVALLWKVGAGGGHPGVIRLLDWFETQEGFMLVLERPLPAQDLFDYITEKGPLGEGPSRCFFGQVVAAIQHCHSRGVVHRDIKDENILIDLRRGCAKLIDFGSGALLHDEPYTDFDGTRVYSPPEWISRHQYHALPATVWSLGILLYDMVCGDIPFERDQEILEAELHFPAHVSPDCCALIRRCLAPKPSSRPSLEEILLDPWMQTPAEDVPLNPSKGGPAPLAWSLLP

O=C1Nc2c(cc([N+](=O)[O-])c3c2CCCC3)C1=NO [Compound 5d, 3-(Hydroxyimino)-5-nitro-1,3,6,7,8,9-hexahydro-2H-benzo[g]indol-2-one]
inhibition at 10 µM (ABL1 (M351T)-P): 5% | inhibition at 10 µM (AKT1): 10% | inhibition at 10 µM (LTK): 64% | inhibition at 10 µM (ERK1): 0% | inhibition at 10 µM (AAK1): 91.8% | inhibition at 10 µM (PAK6): 39% | inhibition at 10 µM (PRKCQ): 7% | inhibition at 10 µM (CAMK2B): 70% | inhibition at 10 µM (WEE1): 16% | inhibition at 10 µM (VRK2): 0% | inhibition at 10 µM (KIT-autoinhibited): 0% | inhibition at 10 µM (PCTK1): 5% | inhibition at 10 µM (SRPK1): 53% | inhibition at 10 µM (ADCK4): 12% | inhibition at 10 µM (ABL1 (F317L)-P; first of two lines printed ABL1 (F317L)-P): 23% | inhibition at 10 µM (ABL1 (F317L)-P; second of two lines printed ABL1 (F317L)-P): 20% | inhibition at 10 µM (PIK3CA (Q546K)): 40% | inhibition at 10 µM (SNRK): 22% | inhibition at 10 µM (NEK7): 26% | inhibition at 10 µM (LYN): 9% | inhibition at 10 µM (FGR): 0% | inhibition at 10 µM (ZAK): 14% | inhibition at 10 µM (CAMK1B): 12% | inhibition at 10 µM (OSR1): 25% | inhibition at 10 µM (ACVR1): 2% | inhibition at 10 µM (PIM2): 96% | inhibition at 10 µM (CLK4): 93.9% | inhibition at 10 µM (GRK1): 67% | inhibition at 10 µM (MAP3K3): 68% | inhibition at 10 µM (TNK2): 2% | inhibition at 10 µM (CTK): 0% | inhibition at 10 µM (EGFR (L861Q)): 12% | inhibition at 10 µM (TAOK1): 62% | inhibition at 10 µM (PCTK2): 0% | inhibition at 10 µM (STK36): 10% | inhibition at 10 µM [1]: 74% | inhibition at 10 µM (PRKD3): 77% | inhibition at 10 µM (STK16): 72% | inhibition at 10 µM (IKK-β): 50% | inhibition at 10 µM (CLK3): 19%
